How the values were obtained:
liver of C57BL/6 mice [1] = assay: Hepatic triglyceride measurement; assay type: in vivo, mouse
C57BL/6 mice = assay: Organ and body weights; assay type: in vivo, mouse; conditions: 24 h dose-response study
AhR = conditions: ref Craft et al. 2002; Honkakoski et al. 2003; Tabb et al. 2004; Kopec et al. 2010b; cited from earlier work
hepatic gene expression = conditions: liver, 300 mg/kg PCB153; ref Kopec et al. 2010b; cited from earlier work
liver of C57BL/6 mice [2] = assay: Liver histopathology; assay type: in vivo, mouse
[3] = liver, after seven days; ref Kopec et al. 2010b; cited from earlier work
[4] = ref Diliberto et al. 1999; cited from earlier work
liver = conditions: when co-treated with TCDD; ref Mitchell et al. 2010; cited from earlier work

| Compound | hepatic triglycerides (liver of C57BL/6 mice [1]) | relative liver weight (RLW) (C57BL/6 mice) | AhR binding or activation (AhR) | down-regulation of Elovl5 (hepatic gene expression) | hepatic inflammation (liver of C57BL/6 mice [2]; time course study) | hepatocellular hypertrophy (liver of C57BL/6 mice [2]; time course study) | hepatocellular vacuolization (liver of C57BL/6 mice [2]; time course study) | hepatic level at 168 h [3] | hepatic TCDD accumulation, fold lower in Cyp1a2 null mice compared to wild types [4] [fold] | hepatic inflammation / cell infiltration (liver of C57BL/6 mice [2]; 24 h dose-response, TCDD 15, 30, 45 μg/kg, MIX three highest combinations) | increase in hepatic proliferation (liver) |
| --- | --- | --- | --- | --- | --- | --- | --- | --- | --- | --- | --- |
| Clc1cc(Cl)c(-c2cc(Cl)c(Cl)cc2Cl)cc1Cl [PCB153, 2,2′,4,4′,5,5′-hexachlorobiphenyl] | no effect | increased RLW only at 100 and 300 mg/kg | does not bind or activate | ~ 2 fold | did not elicit inflammation | mild to moderate centrilobular hypertrophy | vacuolization comparable to levels observed in vehicles | dramatically decreased | – | – | – |
| Clc1cc2c(cc1Cl)Oc1cc(Cl)c(Cl)cc1O2 [TCDD, 2,3,7,8-tetrachlorodibenzo-p-dioxin] | significant increases | comparable increases in RLW in all but the lowest dose groups | – | – | moderate multifocal inflammation | – | marked hepatocellular vacuolization | more modest reductions | 10 | minimal multifocal inflammation | – |
| Clc1cnc(Oc2ccc(Oc3ncc(Cl)cc3Cl)cc2)c(Cl)c1 [TCPOBOP] | – | – | – | – | – | – | – | – | – | – | 30–50% |

Reference: article PMC4126514 (Toxicology and applied pharmacology, 2011)
